Experimental data as given in US20110158980A1, “METHODS TO TREAT AND SCREEN FOR AGENTS TO TREAT OBESITY” (TRUSTEES OF TUFTS COLLEGE, priority 2008, published 2011).

Assays:
Type in all cases: cell-based
3T3-L1 adipocytes [1] = assay: Amino acid uptake or output of adipocytes (HPLC of spent medium); details: 20 mM OXA; day 12 post-induction; positive value = uptake
Method: (§1) 3T3-L1 preadipocytes were plated onto 24-well plates and expanded in preadipocyte growth medium consisting of DMEM supplemented with calf serum (10% v/v), penicillin and streptomycin. Medium was replenished every other day. Two days post-confluence, the cells were induced to differentiate using an adipogenic cocktail (1 μg/ml insulin, 0.5 mM isobutylmethylxanthine, and 1 μM dexamethasone) added to a basal medium (DMEM with 10% fetal bovine serum and penicillin/streptomycin). After 48 hrs, the first medium was replaced with a second induction medium consisting of the basal adipocyte medium supplemented with only insulin. […] This basal medium was replenished every other day during the remainder of the culture experiments.
(§2) Metabolite measurements were performed both on cell lysates and spent medium samples as described previously (Si Y, Yoon J, Lee K. American journal of physiology 2007; 292:E1637-46). Cells were lysed in situ with an 0.1% SDS buffer and sonicated. Immediately after collection, the spent medium samples were cleaned of cell debris by a brief centrifugation step. Free glycerol, TG and free fatty acids (FFAs) were measured using enzymatic assay kits (SIGMA™). Glucose and lactate concentrations were measured using the methods of Trinder (Trinder P. J Clin Pathol 1969; 22:158-61) and Loomis (Loomis M E. J Lab Clin Med 1961; 57:966-9), respectively. Amino acids were quantified by HPLC using fluorescence-based detection following pre-column derivatization of primary or secondary amines with 6-aminoquinolyl-N-hydroxysuccinimidyl-carbamate (Cohen S A, De Antonis K M. J Chromatogr A 1994; 661:25-34). All metabolite data were normalized by the corresponding cell sample DNA content, which was determined with a fluorescence-based assay using the Hoechst dye.

3T3-L1 adipocytes [2] = assay: Metabolic flux analysis (stoichiometric model) of adipocyte intermediary metabolism; details: day 12 post-induction
Method: as §1
A stoichiometric model of adipocyte central carbon metabolism was constructed as described previously (Si Y, Yoon J, Lee K. American journal of physiology 2007; 292:E1637-46). The model consisted of the major pathways of central carbon metabolism (Table 1). Intracellular fluxes were estimated by solving a constrained non-linear optimization problem with stoichiometric and thermodynamic constraints (Nolan R P, Fenley A P, Lee K. Metab Eng 2006; 8:30-45).

3T3-L1 adipocytes [3] = assay: Metabolite assays (TG, FFA, glucose, lactate, glycerol) on cell lysates and spent medium; details: 20 mM oxamate, day 12 post-induction
Method: as §1, §2

## NC(=O)C(=O)O [oxamate]
3T3-L1 adipocytes [1]
  ALA uptake or output: 0.6 ± 0.0 mmol/g-DNA/2 days
  ASN uptake or output: −1.1 ± 0.2 mmol/g-DNA/2 days
  ASP uptake or output: 0.0 ± 0.0 mmol/g-DNA/2 days
  GLN uptake or output: −12.0 ± 1.5 mmol/g-DNA/2 days
  GLU uptake or output: 0.4 ± 0.0 mmol/g-DNA/2 days
  GLY uptake or output: −5.9 ± 0.4 mmol/g-DNA/2 days
  HIS uptake or output: −0.2 ± 0.1 mmol/g-DNA/2 days
  ILE uptake or output: 6.1 ± 0.3 mmol/g-DNA/2 days
  LEU uptake or output: 6.8 ± 0.3 mmol/g-DNA/2 days
  LYS uptake or output: −2.0 ± 0.3 mmol/g-DNA/2 days
  MET uptake or output: 0.0 ± 0.0 mmol/g-DNA/2 days
  PHE uptake or output: −0.3 ± 0.1 mmol/g-DNA/2 days
  PRO uptake or output: −0.5 ± 0.0^ mmol/g-DNA/2 days
  SER uptake or output: 4.0 ± 0.2 mmol/g-DNA/2 days
  THR uptake or output: −1.4 ± 0.3^ mmol/g-DNA/2 days
  TYR uptake or output: −0.3 ± 0.1 mmol/g-DNA/2 days
  VAL uptake or output: 3.3 ± 0.2 mmol/g-DNA/2 days
3T3-L1 adipocytes [2]; OXA 20 mM
  Flux RXN 1 Glycolysis: Glucose + ATP = Glucose 6-P + ADP: 212.3 ± 15.3 mmol/g-DNA/2 days
  Flux RXN 2 Glycolysis: Glucose 6-P = Fructose 6-P: 205.0 ± 14.2 mmol/g-DNA/2 days
  Flux RXN 3 Glycolysis: Fructose 6-P + ATP = Glyceraldehyde 3-P + Glycerone-P + ADP: 209.9 ± 14.8 mmol/g-DNA/2 days
  Flux RXN 4 Glycolysis: Glycerone-P = Glyceraldehyde 3-P: 187.8 ± 13.9 mmol/g-DNA/2 days
  Flux RXN 5 Glycolysis: Glyceraldehyde 3-P + NAD+ + ADP + Pi = P-Enolpyruvate + ATP + H2O: 400.1 ± 28.6 mmol/g-DNA/2 days
  Flux RXN 6 Glycolysis: P-Enolpyruvate + ADP + H+ = Pyruvate + ATP: 463.5 ± 35.6 mmol/g-DNA/2 days
  Flux RXN 7 Glycolysis: Pyruvate + NADH + H+ = Lactate + NAD+: 119.2 ± 9.1 mmol/g-DNA/2 days
  Flux RXN 8 Pentose phosphate pathway: Glucose 6-P + 2 NADP+ + H2O = Ribulose 5-P + CO2 + 2 NADPH + 2 H+: 7.3 ± 4.6 mmol/g-DNA/2 days
  Flux RXN 9 Pentose phosphate pathway: 3 Ribulose 5-P = 2 Fructose 6-P + Glyceraldehyde 3-P: 2.4 ± 1.5 mmol/g-DNA/2 days
  Flux RXN 10 TCA cycle (mitochondria) (PDC): 290.4 ± 25.6 mmol/g-DNA/2 days
  Flux RXN 11 TCA cycle (mitochondria) (PC): 109.1 ± 31.7 mmol/g-DNA/2 days
  Flux RXN 12 TCA cycle (mitochondria): 185.0 ± 19.7 mmol/g-DNA/2 days
  Flux RXN 13 TCA cycle (mitochondria): 226.7 ± 26.2 mmol/g-DNA/2 days
  Flux RXN 14 TCA cycle (mitochondria): 236.0 ± 26.3 mmol/g-DNA/2 days
  Flux RXN 15 TCA cycle (mitochondria): 236.0 ± 26.3 mmol/g-DNA/2 days
  Flux RXN 16 TCA cycle (mitochondria): 181.2 ± 40.8 mmol/g-DNA/2 days
  Flux RXN 17 TCA cycle: Citrate + CoA + ATP = Acetyl-CoA + Oxaloacetate + ADP + Pi: 63.7 ± 12.9 mmol/g-DNA/2 days
  Flux RXN 18 TCA cycle: Oxaloacetate + NADH + H+ = Malate + NAD+: 0.3 ± 0.8 mmol/g-DNA/2 days
  Flux RXN 19 TCA cycle: Malate + NADP+ = Pyruvate + CO2 + NADPH: 55.2 ± 20.8 mmol/g-DNA/2 days
  Flux RXN 20 TCA cycle: Citrate + NADP+ = 2-Oxoglutarate + CO2 + NADPH + H+: 41.6 ± 9.1 mmol/g-DNA/2 days
  Flux RXN 21 TCA cycle: Oxaloacetate + ATP = P-Enolpyruvate + CO2 + ADP: 63.4 ± 12.9 mmol/g-DNA/2 days
  Flux RXN 22 Oxidative phosphorylation (NADH + 0.5 O2): 770.4 ± 108.2 mmol/g-DNA/2 days
  Flux RXN 23 Oxidative phosphorylation (FADH2 + 0.5 O2): 252.2 ± 26.4 mmol/g-DNA/2 days
  Flux RXN 24 Palmitate biosynthesis: 8.0 ± 1.6 mmol/g-DNA/2 days
  Flux RXN 25 Tripalmitoylglycerol biosynthesis: Glycerone-P + 3 Palmitate to Tripalmitoylglycerol: 22.1 ± 4.8 mmol/g-DNA/2 days
  Flux RXN 26 Tripalmitoylglycerol + 3 H2O = Glycerol + 3 Palmitate: 19.8 ± 4.4 mmol/g-DNA/2 days
  Flux RXN 27 Tripalmitoylglycerol accumulation: 2.3 ± 0.5 mmol/g-DNA/2 days
  Flux RXN 28 Metabolism of ketone bodies: 6.4 ± 0.3 mmol/g-DNA/2 days
  Flux RXN 29 Metabolism of ketone bodies: 0.0 ± 0.0 mmol/g-DNA/2 days
  Flux RXN 30 Metabolism of ketone bodies (to 3-Hydroxybutyrate): 10.8 ± 2.2 mmol/g-DNA/2 days
  Flux RXN 31 Amino acid metabolism: Pyruvate + NH4+ + NADPH = Alanine: 0.0 ± 0.0 mmol/g-DNA/2 days
  Flux RXN 32 Amino acid metabolism: Aspartate + NH4+ = Asparagine: 0.6 ± 0.1 mmol/g-DNA/2 days
  Flux RXN 33 Amino acid metabolism: Aspartate = Oxaloacetate + NH4+ + NADH: 0.0 ± 0.0 mmol/g-DNA/2 days
  Flux RXN 34 Amino acid metabolism: Cysteine = Pyruvate + NH4+ + NADH: 0.0 ± 0.0 mmol/g-DNA/2 days
  Flux RXN 35 Amino acid metabolism: Glutamate = 2-Oxoglutarate + NH4+ + NADH: 0.0 ± 0.0 mmol/g-DNA/2 days
  Flux RXN 36 Amino acid metabolism: Glutamate + NH4+ + ATP = Glutamine: 8.0 ± 1.0 mmol/g-DNA/2 days
  Flux RXN 37 Amino acid metabolism: Serine + THF = Glycine: 5.0 ± 0.3 mmol/g-DNA/2 days
  Flux RXN 38 Amino acid metabolism: Histidine + THF = Glutamate + NH4+: 4.1 ± 0.5 mmol/g-DNA/2 days
  Flux RXN 39 Amino acid metabolism: Isoleucine + 2 CoA: 6.1 ± 0.3 mmol/g-DNA/2 days
  Flux RXN 40 Amino acid metabolism: Leucine + CoA + CO2 + ATP: 6.8 ± 0.3 mmol/g-DNA/2 days
  Flux RXN 41 Amino acid metabolism: Lysine = 2-Oxoadipate + 2 NH4+ + 3 NADH: 0.0 ± 0.0 mmol/g-DNA/2 days
  Flux RXN 42 Amino acid metabolism: 2-Oxoadipate + CoA: 0.0 ± 0.0 mmol/g-DNA/2 days
  Flux RXN 43 Amino acid metabolism: Methionine + Serine + ATP + CoA + THF: 0.0 ± 0.0 mmol/g-DNA/2 days
  Flux RXN 44 Amino acid metabolism: Phenylalanine + O2 + NADH = Tyrosine: 0.0 ± 0.0 mmol/g-DNA/2 days
  Flux RXN 45 Amino acid metabolism: Glutamate + ATP + 2 NADPH = Proline: 0.0 ± 0.0 mmol/g-DNA/2 days
  Flux RXN 46 Amino acid metabolism: Serine = Pyruvate + NH4+: 0.0 ± 0.0 mmol/g-DNA/2 days
  Flux RXN 47 Amino acid metabolism: Threonine + CoA to Glycine: 0.0 ± 0.0 mmol/g-DNA/2 days
  Flux RXN 48 Amino acid metabolism: Tryptophan + 3 O2 + NADPH = 2-Oxoadipate + Alanine + CO2 + NH4+: 0.0 ± 0.0 mmol/g-DNA/2 days
  Flux RXN 49 Amino acid metabolism: Tyrosine + 2 O2: 0.0 ± 0.0 mmol/g-DNA/2 days
  Flux RXN 50 Amino acid metabolism: Valine + CoA: 3.3 ± 0.2 mmol/g-DNA/2 days
  Flux RXN 51 Plasma exchange: Palmitate: 1.0 ± 0.1 mmol/g-DNA/2 days
  Flux RXN 52 Plasma exchange: Acetoacetate: 2.4 ± 1.9 mmol/g-DNA/2 days
  Flux RXN 53 Plasma exchange: Alanine: 0.0 ± 0.0 mmol/g-DNA/2 days
  Flux RXN 54 Plasma exchange: Aspartate: 0.6 ± 0.1 mmol/g-DNA/2 days
  Flux RXN 55 Plasma exchange: Cysteine: 0.0 ± 0.0 mmol/g-DNA/2 days
  Flux RXN 56 Plasma exchange: Glutamate: 3.9 ± 0.5 mmol/g-DNA/2 days
  Flux RXN 57 Plasma exchange: Glycine: 5.0 ± 0.3 mmol/g-DNA/2 days
  Flux RXN 58 Plasma exchange: Serine: 5.0 ± 0.3 mmol/g-DNA/2 days
  Flux RXN 59 Plasma exchange: Tyrosine: 0.0 ± 0.0 mmol/g-DNA/2 days
  Flux RXN 60 Plasma exchange: O2 (calculated oxygen uptake rate): 511.3 ± 67.1 mmol/g-DNA/2 days
  Flux RXN 61 Plasma exchange: CO2: 756.9 ± 75.2 mmol/g-DNA/2 days
  Flux RXN 62 Plasma exchange: NH4+: 11.7 ± 0.5 mmol/g-DNA/2 days
  Flux RXN 63 Mitochondrial exchange: Pyruvate: 399.5 ± 40.8 mmol/g-DNA/2 days
  Flux RXN 64 Mitochondrial exchange: Malate in, Citrate out: 105.3 ± 13.9 mmol/g-DNA/2 days
  Flux RXN 65 Mitochondrial exchange: 2-Oxoglutarate in, Malate out: 41.6 ± 9.1 mmol/g-DNA/2 days
  Flux RXN 66 Mitochondrial exchange: Pi in, Malate out: 54.8 ± 20.5 mmol/g-DNA/2 days
3T3-L1 adipocytes [2]; oxamate
  Decrease of PC flux: 41%
  Decrease of citrate transport out of the mitochondria: 44%
  Decrease of de novo fatty acid synthesis: 49%
  Decrease of flux through glycolysis: 17˜26%
  Decrease of flux through the pentose phosphate pathway (PPP): 82%
  Decrease of pyruvate flux entering the TCA cycle: 21%
  Increase of lipolysis: 131%
  Increase of triglyceride synthesis: 65%
  Reduction of net triglyceride accumulation: 52%
3T3-L1 adipocytes [3]
  Glycerol output raised: 1.3 fold
  Reduction of glucose uptake: 20%
3T3-L1 adipocytes [3]; Mus musculus, 3T3-L1, vs untreated control, read-out: Inhibition of lactate output
  inhibition at 20000 µM: 40%
